Laboratory results published in patent US20080234223A1, “N4 MODIFICATIONS OF PYRIMIDINE ANALOGS AND USES THEREOF” (UNIVERSITY OF SOUTHERN CALIFORNIA, priority 2006, published 2008).

Experiments:
[1] = tested on: LINE-1 DNA methylation in T24 cells (bladder); assay: Global DNA methylation, bisulfite-PCR pyrosequencing of LINE-1, T24 cells; type: cell-based; conditions: for decrease in global DNA methylation (LINE-1): three days; for LINE-1 methylation level after treatment: baseline 47.3%
Procedure: (§1) T24 cells (urinary bladder transitional cell carcinoma), MCF7 (breast adenocarcinoma), HepG2 cells (hepatocellular carcinoma), Hep3B (hepatocellular carcinoma), were obtained from American Type Culture Collection (Manassas, Va.). T24 were cultured in McCoy's 5A medium supplemented with 10% fetal bovine serum. Other cells were cultured in DMEM medium plus 10% fetal bovine serum. All cells were grown in a humidified 37° C. incubator containing 5% CO2.
(§2) Cells were seeded at 2×10^4 cells per well in a 12-well dish 24 hours prior to treatments. Cells were treated with 5-Aza-CdR (Sigma-Aldrich Chemical Company, St. Louis, Mo.), NPEOC-DAC at the indicated concentrations. 5-aza-2′-deoxyazacytidine was dissolved in distilled water and NPEOC-DAC was dissolved in dimethyl sulfoxide (DMSO). Untreated controls of the DMSO solvent alone were also included. Cells were treated at the concentrations indicated for each experiment. Cells were collected after the number of days indicated in individual experiments. For subsequent methylation, genomic DNA was extracted using standard phenol/chloroform extraction methods, as described previously (27). Each experiment was done in triplicate and standard deviations are indicated by error bars.
(§3) Bisulfite modification of genomic DNA has been described previously (28). In brief, 1.5 μg of DNA was denatured in 50 μl of 0.2 M NaOH for 10 min at 37° C. Then, 30 μl of freshly prepared 10 mM hydroquinone (Sigma) and 520 μl of 3 M sodium bisulfite (Sigma) at pH 5.0 were added and mixed. The samples were overlaid with mineral oil to prevent evaporation and incubated at 50° C. for 16 h. The bisulfite-treated DNA was isolated using Wizard DNA Clean-Up System (Promega). The DNA was eluted by 50 microliters of warm water and 5.5 microliters of 3 M NaOH were added for 5 min. The DNA was ethanol precipitated with glycogen as a carrier and resuspended in 20 microliters of water. Bisulfite treated DNA was stored at −20° C. until ready for use.
(§4) Bisulfite-converted DNA was used for pyrosequencing analysis as previously described (29). In brief, PCR product of each gene was used for individual sequencing reaction. Streptavidin-Sepharose beads (Amersham Biosciences, Uppsala, Sweden) and Vacuum Prep Tool (Biotage AB, Uppsala, Sweden) was used to purify the single-stranded biotinylated PCR product per the manufacturer's recommendation. The appropriate sequencing primer was annealed to the purified PCR product and used for a pyrosequencing reaction using the PSQ 96HS system (Biotage AB, Uppsala, Sweden). Raw data were analyzed with the allele quantification algorithm using the provided software. Pyrosequencing was done for LINE-1 elements and ID4 tumor suppressor gene.

[2] = tested on: LINE-1 DNA methylation in MCF7 cells (breast); assay: Global DNA methylation, bisulfite-PCR pyrosequencing of LINE-1, MCF7 cells; type: cell-based; conditions: MCF; 10 μM; three days
Procedure: as §1
as §2, with “For subsequent methylation, genomic DNA was extracted using standard phenol/chloroform extraction methods, as described previously (27). Each experiment was done in triplicate and standard deviations are indicated by error bars.” left out
(§5) Bisulfite modification of genomic DNA has been described previously (28). […] Bisulfite treated DNA was stored at −20° C. until ready for use.
(§6) Bisulfite-converted DNA was used for pyrosequencing analysis as previously described (29). […] Raw data were analyzed with the allele quantification algorithm using the provided software. […]

[3] = tested on: LINE-1 DNA methylation in HepG2 cells (liver); assay: Global DNA methylation, bisulfite-PCR pyrosequencing of LINE-1, HepG2 cells; type: cell-based; conditions: for LINE-1 methylation level after treatment / LINE-1 methylation level, time course / decrease in global DNA methylation (LINE-1): HepG2; for LINE-1 methylation level after treatment: 3 days, untreated baseline 53.9%; for LINE-1 methylation level, time course: 10 μM continual treatment, baseline 53.9%; for decrease in global DNA methylation (LINE-1): three days
Procedure: as §1, §2, §3, §4

[4] = tested on: LINE-1 DNA methylation in Hep3B cells (liver); assay: Global DNA methylation, bisulfite-PCR pyrosequencing of LINE-1, Hep3B cells; type: cell-based; conditions: 10 μM, three days
Procedure: as §1
as §2, with “For subsequent methylation, genomic DNA was extracted using standard phenol/chloroform extraction methods, as described previously (27). Each experiment was done in triplicate and standard deviations are indicated by error bars.” left out
as §5, §6

[5] = tested on: ID4 DNA methylation in T24 cells; assay: ID4 gene methylation, bisulfite-PCR pyrosequencing, T24 cells; type: cell-based; conditions: 10 μM, 3 days, baseline 40.2%
Procedure: as §1
as §2, with “For subsequent methylation, genomic DNA was extracted using standard phenol/chloroform extraction methods, as described previously (27). Each experiment was done in triplicate and standard deviations are indicated by error bars.” left out
as §5, §6

[6] = tested on: ID4 DNA methylation in MCF7 cells; assay: ID4 gene methylation, bisulfite-PCR pyrosequencing, MCF7 cells; type: cell-based; conditions: MCF; 10 μM; 3 days; baseline 39.0%
Procedure: as §1
as §2, with “For subsequent methylation, genomic DNA was extracted using standard phenol/chloroform extraction methods, as described previously (27). Each experiment was done in triplicate and standard deviations are indicated by error bars.” left out
as §5, §6

[7] = tested on: ID4 DNA methylation in HepG2 cells; assay: ID4 gene methylation, bisulfite-PCR pyrosequencing, HepG2 cells; type: cell-based; conditions: 10 μM, 3 days, baseline 94.7%
Procedure: as §1
as §2, with “For subsequent methylation, genomic DNA was extracted using standard phenol/chloroform extraction methods, as described previously (27). Each experiment was done in triplicate and standard deviations are indicated by error bars.” left out
as §5, §6

[8] = tested on: ID4 DNA methylation in Hep3B cells; assay: ID4 gene methylation, bisulfite-PCR pyrosequencing, Hep3B cells; type: cell-based; conditions: 10 μM, 3 days, baseline 95.4%
Procedure: as §1
as §2, with “For subsequent methylation, genomic DNA was extracted using standard phenol/chloroform extraction methods, as described previously (27). Each experiment was done in triplicate and standard deviations are indicated by error bars.” left out
as §5, §6

[9] = tested on: ID4 expression in HepG2 cells; assay: ID4 mRNA expression by RT-PCR in HepG2 cells; type: cell-based; conditions: 3 days of treatment, untreated cells no detectable ID4
Procedure: Genomic DNA was isolated by standard proteinase K digestion and phenol-chloroform extraction (26). Total RNA was collected and extracted from cultured cells with the RNeasy Protect minikit (Qiagen, Valencia, Calif.) according to the manufacturer's protocol.
as §2
Total RNA (5 micrograms) extracted from cultured cells was reverse transcribed with Moloney murine leukemia virus reverse transcriptase (Invitrogen, Carlsbad, Calif.) and random hexamers (NEB) in a total volume of 20 microliters. The reverse transcription was performed according to the manufacturer's recommended protocol. […]

[10] = tested on: LINE-1 DNA methylation in HepG2 cells (carboxylesterase dependence); assay: Inhibition of carboxylesterase by NDGA: LINE-1 methylation in HepG2 cells; type: cell-based
Description: as §4
For dose effects of nordihydroguaiaretic acid (NDGA) on CES inhibition, HepG2 cells were grown in 6-well plates. […] Cells were harvested on day 4 by Tripsin-EDTA.

[11] = tested on: epigenetically silenced GFP reporter gene in NIH3T3 cells; assay: Epigenetic GFP reporter system, NIH3T3 cells with transient CES1 or CES2 transfection; type: cell-based; conditions: NIH3T3 GFP reporter clone
Description: It was discovered that NPEOC-DAC could inhibit DNA methylation in cells expressing CES1 but not cells expressing CES2, and that inhibition of CES by NDGA blocked the ability of NPEOC-DAC to inhibit DNA methylation. […] Transfection of CES2 had no effect on NPEOC-DAC treatment and activation of GFP. NPEOC-DAC activation is dependent on CES1 expression.

HepG2 cells = assay: Cell toxicity during drug treatment of HepG2 cells; type: cell-based; conditions: for toxicity: 10 uM continual treatment, time course
Procedure: as §2

Solubility in water = type: physicochemical; conditions: consequently dissolved in DMSO
[12] = rapid deamination by plasma cytidine deaminase; cited from earlier work

SMILES | decrease in global DNA methylation (LINE-1) ([1]; 10 μM) [%] | decrease in global DNA methylation (LINE-1) [2] [%] | LINE-1 methylation level after treatment ([3]; 0.5 μM) | LINE-1 methylation level, time course ([3]; day 1) | LINE-1 methylation level, time course ([3]; day 7) | decrease in global DNA methylation (LINE-1) ([3]; 10 μM) [%] | decrease in global DNA methylation (LINE-1) [4] [%] | decrease in DNA methylation of ID4 [5] [%] | decrease in DNA methylation of ID4 [6] [%] | decrease in DNA methylation of ID4 [7] [%] | decrease in DNA methylation of ID4 [8] [%] | ID4 mRNA expression (RT-PCR) [9] | reactivation of GFP ([11]; no CES transfection) | toxicity (HepG2 cells) | other results
O=C(Nc1ncn([C@H]2C[C@H](O)[C@@H](CO)O2)c(=O)n1)OCCc1ccc([N+](=O)[O-])cc1 [NPEOC-DAC, 2′-deoxy-N4-[2-(4-nitrophenyl)ethoxycarbonyl]-5-azacytidine] | 0.9 | 5.1 | no detectable effect | did not begin to decrease LINE-1 methylation until day 3 | 38.9% | 22.1 | 17.4 | 8.2 | 10.0 | 24.7 | 26.2 | increased expression of ID4 | without reactivation of GFP | less toxicity than observed with DAC | decrease in DNA methylation (LINE-1), time course ([1]; 10 μM, prolonged treatment (to day 14)): did not show any decrease; change in DNA methylation (LINE-1) ([1]; 3 days, up to the highest concentrations): no change in DNA methylation; delay in the effects compared to DAC [3]: 3 days; fold less efficient at inhibiting DNA methylation compared to DAC [3]: 23 fold; LINE-1 methylation level, time course ([3]; day 3): 43.7%; LINE-1 methylation level, time course ([3]; day 14): 30.9%; LINE-1 methylation level after treatment ([3]; 10 μM, concentration series): 42.0%; LINE-1 methylation level after treatment ([3]; 100 μM): 28.7%; LINE-1 methylation decreased by ([10]; 10 μM NPEOC-DAC alone): 49.7%; LINE-1 methylation level after treatment ([10]; 10 μM NPEOC-DAC alone): 24.5%; LINE-1 methylation change in combination with NDGA ([10]; in combination with NDGA (100 μM)): did not decrease; reactivation of GFP ([11]; transfection of CES2): no effect; reactivation of GFP ([11]; transient transfection of human CES1 gene): reactivation of GFP; solubility in water (Solubility in water): very low solubility in water
CC(Cc1ccc(O)c(O)c1)C(C)Cc1ccc(O)c(O)c1 (centres unmarked) [NDGA, nordihydroguaiaretic acid, reference compound] | – | – | – | – | – | – | – | – | – | – | – | – | – | – | effect on DNA methylation of HepG2 cells ([10]; 100 μM, alone): no effect
Nc1ncn([C@@H]2O[C@H](CO)[C@@H](O)[C@H]2O)c(=O)n1 [5-azacytidine] | – | – | – | – | – | – | – | – | – | – | – | – | – | – | in vivo plasma half-life [12]: 41 min
Nc1ncn([C@H]2C[C@H](O)[C@@H](CO)O2)c(=O)n1 [DAC, 5-aza-2′-deoxycytidine, reference compound] | 57.1 | 11.0 | 46.0% | 36.5% | returned to baseline | 5.6 | 12.3 | 38.1 | 19.7 | 2.6 | 1.1 | clear expression of ID4 could be detected | could be reactivated | significant toxicity | LINE-1 methylation level after treatment ([1]; 0.5 uM, 3 days): 26.8%; LINE-1 methylation level after treatment ([1]; 1 uM, 3 days): 21.0%; LINE-1 methylation level after treatment ([1]; 5 uM, 3 days): 35.7%; LINE-1 methylation level after treatment ([3]; 1 μM): 47.0%; LINE-1 methylation level after treatment ([3]; 5 μM): 56.9%; cell toxicity (HepG2 cells; higher concentrations (5 μM), 3 days): significant cell toxicity
